Experimental data taken from publication PMC9305971, “Development of [^18F]AmBF3 Tetrazine for Radiolabeling of Peptides: Preclinical Evaluation and PET Imaging of [^18F]AmBF3-PEG7-Tyr^3-Octreotide in an AR42J Pancreatic Carcinoma Model” (Bioconjugate Chemistry, 2022).
Like-named read-outs stand apart in the source and are kept apart here.

What was measured:
[1] = Lipophilicity, shake-flask log D7.4 (1-octanol/PBS); format: physicochemical; settings: 1-octanol/PBS pH 7.4, n = 4
Experimental: Lipophilicity was determined with the shake-flask method as a distribution coefficient between 0.01 M PBS and octanol. Purified radiotracer [^18F]6 (10 μL, ∼200 kBq, 1.5 nmol), [^18F]14 (20 μL, ∼260 kBq, 125 pmol), or [^18F]15 (20 μL, 144 kBq, 67 pmol) in a polypropylene tube containing 1500–2000 μL of each in a 1:1 mixture (1-octanol, 0.02 M PBS, pH 7.4) was shaken mechanically (500 rpm, 10 min) and centrifuged (1000g, 5 min), and samples from each layer (400 μL, n = 4) were measured with a γ-counter. The log D7.4 was calculated as a distribution between the two layers at pH 7.4. [^18F]6 (10 MBq, 40 nmol) diluted with 0.01 M PBS at pH 7.4 (≤1% ethanol, 5300 μL) was incubated for 180 min. At selected time points (5, 30, 60, 90, 120, 150, and 180 min), a sample (100 μL) was injected to radio-HPLC. [^18F]14 and [^18F]15 (29 MBq, 10 nmol) diluted in 2000 μL of 0.01 M PBS (≤1% ethanol) were left to incubate. A sample of [^18F]14 (100 μL) after 9 hours and [^18F]15 at selected time points between 30 and 335 min were injected into HPLC (method A). [^18F]15 (0.6 MBq, 0.134 nmol, 200 μL) formulated in ≤5% EtOH-1 × PBS was added and incubated in 2000 μL of PBS-50% human plasma at 37 °C. A 100 μL sample (at 60, 120, 180, and 240 min, n = 2) was diluted with 200 μL of cold acetonitrile and centrifuged (10,000g, 5 min). After centrifugation, a 100 μL sample of the supernatant was injected for radio-HPLC analysis. […]
Lipophilicity. The lipophilicities were determined with the shake-flask method as a distribution profile between 0.01 M PBS and octanol at pH 7.4. The distribution of the radiolabeled compound between the octanol and the PBS layers was calculated according

[2] = system: SSTR2-expressing rat pancreatic adenocarcinoma AR42J cells; assay: Cell uptake assay; format: cell-based; settings: 120 min; for cell uptake, baseline: n = 3, % internalized; for cell uptake, blocking: n = 3, coincubation with excess octreotide
Experimental: AR42J cells were grown to >90% confluence. One million cells/well were seeded overnight on 6-well plates. The growth media was removed, and the reaction media (1 mL) containing [^18F]14 (11 kBq, 10 pmol per well) or [^18F]15 (97 kBq, 40 pmol per well) was added. Additionally, cells were coincubated with 2.4 nmol per well of nonmodified octreotide for blocking of radiotracer uptake. Radioactivity in the free, membrane-bound, and internalized fractions was determined at designated time points (15, 30, 60, and 120 min) by treating the cells in a sequence of (1) ice-cold 0.01 M PBS, (2) glycine buffer, and (3) 1 M NaOH, respectively. The fractions were collected and measured with a γ-counter. The detailed protocol is given in the Supporting Information. […]
where Acoct=radioactivity concentration of octanol and AcPBS=radioactivity concentration of PBS. The datapoints were presented as mean ± standard deviation.
AR42J cell-uptake assay and mouse tumor model. Rat pancreatic tumor cell line AR42J that expresses SSTR2, was cultured at 37 °C in 95% relative humidity incubator containing 5% CO2. Cells grown to >90% confluence were used for either in vitro or in vivo experiments.
One million cells/well were seeded overnight on 6-well plates. The growth media was removed and the medium (1 mL/well) containing [18F]14 (11 kBq, 10 pmol per well) or [18F]15 (97 kBq, 40 pmol per well) was added. For studying the specificity of the cell -uptake, a set of cells were co-incubated in the presence of 2.4 nmol per well of non -modified octreotide representative of blocking conditions (total volume ~1 mL). For determining the amount of the radiotracer in the free fraction, at the designated time-points (15, 30, 60 and 120 min) the incubated media were removed, collected to a 5 mL scintillation tube, cells were washed with 1 mL of cold 0.01 M PBS (1×PBS) and again the supernatant collected into the same scintillation tube. Membrane-bound fraction; ice-cold glycine buffer (1 mL) was added on the cells, incubated for 5 minutes on ice, supernatant removed (procedure repeated once more) and the cells washed with ice -cold 1×PBS, and all washing solutions were collected to the same scintillation tube. Internalized fraction; 1 M NaOH (1 mL) was added on the cells and left incubating at an ambient temperature for 10 min. The supernatant was removed, the wells were washed 2 × 1 mL of cold 0.01 M PBS, and the supernatants collected to the same microtube. The collected samples were measured with a gamma counter for measuring the counts per minute (CPM) of each fraction (n = 3). The internalization is presented in percent (%) normalized to the total radioactivity in all three

[3] = Distribution of radioactivity in blood components after i.v. administration; format: in vivo, mice
Experimental: Whole blood from mice were extracted during ex vivo studies, using cardiac puncture. The sample was applied in a microtube containing 1% heparin solution in 0.9% NaCl (aq.) (2 μL); the sample was centrifuged (1000g, 10 min), the total radioactivity in the sample was measured with a γ counter, the supernatant was separated from the pellet (RBC containing fraction), and cold ACN (500 μL) was added. The sample was centrifuged (10,000g, 5 min) to remove the free fraction from the precipitated protein-containing pellet. The pellet (protein-bound fraction) and the supernatant (free fraction) were measured with a γ counter, and a sample (100 μL) was injected into HPLC and spotted (4 μL) on a TLC plate (radio-TLC, TLC silica gel 60 F254, ACN/water 80:20).

[4] = 60 min post injection, blocked with octreotide

SMILES: C[C@@H](O)[C@@H]1NC(=O)[C@H](CCCCN)NC(=O)[C@@H](Cc2c[nH]c3ccccc23)NC(=O)[C@H](Cc2ccc(O)cc2)NC(=O)[C@@H](NC(=O)[C@@H](Cc2ccccc2)NC(=O)CCOCCOCCOCCOCCON=Cc2ccc(CNC(=O)OC3CCCc4cnnc(-c5ccc(CC(=O)NCC[N+](C)(C)C[B-](F)(F)F)cc5)c4CC3)cc2)CSSC[C@@H](C(=O)N[C@H](CO)[C@@H](C)O)NC1=O (stereo partly shown) [[^18F]14]
- logD [1]: -0.58 ± 0.06
- cell uptake, baseline [2]: 1.0 ± 0.2%
- cell uptake, blocking [2]: 0.5 ± 0.1%
- protein bound fraction ([3]; 5 min post injection): 5.5%
- radioactivity bound to red blood cells ([3]; 5 min post injection): 22%
- radioactivity bound to red blood cells ([3]; 5 min post injection, listed as [18F]14): 21.6%
- protein bound fraction ([3]; 60 min post injection): 7.00%
- radioactivity bound to red blood cells ([3]; 60 min post injection): 25%
- protein bound fraction [3, 4]: 14.6%
- radioactivity bound to red blood cells [3, 4]: 29.7 ± 2.9%
- radioactivity bound to red blood cells ([3]; 60 min post injection, blocked with octreotide, listed as [18F]14): 29.7%
- radioactivity bound to red blood cells ([3]; 60 min post injection, listed as [18F]14): 24.5%
- fraction unbound at 5 min ([3]; mouse, whole blood, intravenous, 5 min post injection, read-out: free fraction): 0.729 ± 0.051
- fraction unbound at 60 min ([3]; mouse, whole blood, intravenous, 60 min post injection, blocked with octreotide, read-out: free fraction): 0.557 ± 0.114
- fraction unbound at 60 min ([3]; mouse, whole blood, intravenous, 60 min post injection, read-out: free fraction): 0.685 ± 0.053

SMILES: C[C@@H](O)[C@@H]1NC(=O)[C@H](CCCCN)NC(=O)[C@@H](Cc2c[nH]c3ccccc23)NC(=O)[C@H](Cc2ccc(O)cc2)NC(=O)[C@@H](NC(=O)[C@@H](Cc2ccccc2)NC(=O)CCOCCOCCOCCOCCON=Cc2ccc(C(=O)NCCOCCOCCOCCNC(=O)OC3CCCc4cnnc(-c5ccc(CC(=O)NCC[N+](C)(C)C[B-](F)(F)F)cc5)c4CC3)cc2)CSSC[C@@H](C(=O)N[C@H](CO)[C@@H](C)O)NC1=O (stereo partly shown) [[^18F]15]
- log D7.4 [1]: −0.73 ± 0.12
- logD [1]: -0.7 ± 0.1
- cell uptake, baseline [2]: 6.1 ± 0.6%
- cell uptake, blocking [2]: 0.7 ± 0.1%
